ChEMBL document CHEMBL1125257, “Dihydropyrimidine calcium channel blockers. 3. 3-Carbamoyl-4-aryl-1,2,3,4-tetrahydro-6-methyl-5-pyrimidinecarboxylic acid esters as orally effective antihypertensive agents” (J Med Chem, 1991)

Test system: Rattus norvegicus
Test: Antihypertensive activity when administered orally to spontaneously hypertensive rats
Assay type: functional, organism-based

Structure (SMILES) | IC50
CCOC(=O)C1=C(COCCN)NC(C)=C(C(=O)OC)C1c1ccccc1Cl (configuration not stated) [AMLODIPINE] | 2.5 nM
COC(=O)C1=C(C)NC(C)=C(C(=O)OC)C1c1ccccc1[N+](=O)[O-] [NIFEDIPINE] | 2.5 nM
